# Reference: patent publication US11484601B2, “Targeting M2-like tumor-associated macrophages by using melittin-based proapoptotic peptide” (TWI[…]., priority 2018, dated 2022)
# Tested on: M2 macrophage (RAW264.7 differentiated into M2-type with IL-4 and IL-13)
# Assay: MTS cell viability assay, M2-type macrophage
# Type: cell-based, mouse
# Conditions: compared with MEL and DM1 alone
# Method: More specifically, dKLA (SEQ ID NO: 2), MEL (SEQ ID NO: 1), MEL-dKLA (SEQ ID NO: 3; […]-d[KLAKLAKKLAKLAK]) peptide and 5-carboxyl tetramethylrhodamine (TMR)-conjugated dKLA, MEL and MEL-KLA peptides were purchased from GenScript (Piscataway, N.J., USA). TMR was conjugated with the amino group located at the N-terminal of the peptide. Regarding all of the peptides, 95% or greater purified peptides were used. Murine Lewis lung carcinoma (LLC) cells and macrophage RAW264.7 of mice were cultured in Dulbecco's modified Eagle's medium (DMEM; Welgene, Korea) to which 10% heat-inactivated fetal bovine serum (Welgene), 100 U/mL penicillin and 100 μg/mL streptomycin (Invitrogen, CA, USA) were added. Macrophage (RAW264.7) differentiated into M2-type was treated with IL-4 and IL-13 in the medium for 24 hours. After the treatment, the cells were cultured in a state in which serum was insufficient for 48 hours. M1-type macrophage was treated with 1 ng/mL of LPS for 24 hours to induce differentiation.
# The cell viability test was measured via the MTS assay. RAW264.7 macrophage was differentiated into M1-type or M2-type macrophage which was inoculated onto a 96-well plate at 3×10^4 cells/well. The next day, the macrophage was treated with each of PBS, dKLA, MEL and MEL-dKLA. After 24 hours, the culture solution was replaced and the cell was treated with 20 μL MTS reaction solution (Promega, WI, USA), followed by reaction at 37° C. Then, […] was measured at 490 nm to measure cell viability.
# The MEL-DM1 anticancer drug conjugation method and cell test method are as described above.
substance,measurement,value
MEL-DM1: melittin with N-terminal maleimide covalently bound to the free-sulfhydryl group of maytansine DM1,M2 selective cell killing effect,higher M2 selective cell killing effect
